Measured values taken from patent publication US20230265044A1, “SALT OF DEMETHYL TRAMADOL AND USE THEREOF” (priority 2020, published 2023).
Converted amounts (≈) assume the structure as drawn.

How the values were obtained:
[1] = Determination on solubility in water (HPLC, stirred 24 hr); assay type: physicochemical; settings: for solubility: in water, stirred for 24 hr; for approximate solubility: water needed to dissolve 1 g: per 1 g of sample, converted from solubility
Method: 1. chromatographic column: Agilent Pursuit C18, 3um, 4.6*150 mm
2. Mobile phase: 0.1% trifluoroacetic acid: acetonitrile=20: 80, flow rate: 1.0 mL/min, wavelength: 215 nm, column temperature: 35° C., injection volume: 10 μl;
3. Mobile phase preparation process:
1.0 mL of trifluoroacetic acid was added into 1000 mL of water, mixed well, and ultrasonicated;
4. Sample preparation process
About 10 mg of the sample to be tested was weighed and added into 1 mL of water, stirred for 24 hr, and centrifuged. The supernatant was taken as the sample for testing solubility. 10 mg of demethyl tramadol palmitate with the same structure as the sample to be tested was weighed and placed in a 100 mL measuring flask, 80% aqueous methanol solution was added to dissolve and dilute the demethyl tramadol palmitate to the scale, which was used as the corresponding reference solution.

[2] = Determination on hygroscopicity (80% RH, 24 h); assay type: physicochemical
Method: Test process: a weighing bottle was taken, put into a dryer with 80% RH saturated solution, balanced for 24 h, taken out, and weighed as m1; a sample was taken, spread into the weighing bottle with a thickness about 1 mm, and weighed as m2; and then the weighing bottle was put into the dryer with 80% RH saturated solution, balanced for 24 h, and weighed as m3.
Calculation formula: hygroscopicity=(m3−m2)/(m2−m1)*100%

Question: With `CN(C)CC1CCCCC1(O)c1cccc(O)c1` (racemic) [Example 2, Demethyl Tramadol Palmitate Monosalt] as the compound, how does the solubility [1] read?
Answer: The solubility was 0.7 mg/mL.

Question: What about the “approximate solubility: water needed to dissolve 1 g” value (shortened to “approximate solubility: water needed”) [1] of the same compound?
Answer: Its value is 1428.6 mL.

Question: What about the hygroscopicity [2] of the same compound?
Answer: The hygroscopicity was 6.3%.

Question: What does the source list for `CN(C)C[C@H]1CCCC[C@]1(O)c1cccc(O)c1` (racemic) [racemic demethyl tramadol free base, (±)-(1RS, 2RS)-2-[(N,N dimethylamino)methylene]-1-hydroxy-cyclohexyl phenol]?
Answer: solubility [1]: 1.4 mg/mL (≈ 5.61 mM); approximate solubility: water needed to dissolve 1 g [1]: 714.3 mL

Question: With `CN(C)C[C@H]1CCCC[C@]1(O)c1cccc(O)c1.Cl` (racemic) [racemic demethyl tramadol hydrochloride] as the compound, how does the solubility [1] read?
Answer: Its solubility is “higher than 200 mg/mL”.

Question: And the “approximate solubility: water needed” value [1]?
Answer: Its value is ≤ 5 mL.

Question: With racemic demethyl tramadol acetate as the compound, how does the solubility [1] read?
Answer: Its solubility is “higher than 50 mg/mL”.

Question: What about the “approximate solubility: water needed” value [1] of the same compound?
Answer: The value was ≤ 20 mL.
